Patent US11918555B2, “Dicarboxylic acid esters for the treatment of diseases and conditions associated with phospholipase D toxin” (priority 2020, dated 2024)

Assays:
human RBC = assay: Hemolysis assay on human RBC (substance alone); type: cell-based
Method: (§1) Hemolytic activity was assessed on human RBC. The assay using human erythrocytes followed an established procedure as described in Evans, et al., “Ex vivo red blood cell hemolysis assay for the evaluation of pH-responsive endosomolytic agents for cytosolic delivery of biomacromolecular drugs,” J Vis Exp, 2013, e50166. Briefly, whole peripheral blood was drawn directly into K2-EDTA coated Vacutainer tubes and centrifuged at 500×g (relative centrifugal force). Pelleted erythrocytes were washed twice each with 150 mM NaCl and with phosphate buffered saline (PBS) and then reconstituted in 50-fold excess PBS. Immediately prior to the assay LOX was reconstituted in 20% glycerol in PBS. rPLD toxin was supplied as frozen stock in 10 mM Tris-HCl, 1 mM EDTA, 20% glycerol, was thawed on ice. The lysis assay was performed in 96-wells in a total volume of 200 ul. LOX and PLD toxin were and added as 20× concentrated stocks to the erythrocyte suspension. Triton X-100 (5% in serial dilutions to 0.04%) was used as a positive control. Incubation was performed for 60 min and the absorbance at 400 nm was measured using Tecan GENios microwell plate reader. Measurements were performed in triplicate repeats.

[1] = test system: Loxosceles reclusa venom (LOX); assay: Inhibition of hemolysis induced by L. reclusa venom (LOX); type: cell-based
Method: (§2) Lyophilized Loxosceles reclusa venom (LOX) was purchased from SpiderPharm, Yarnell, AZ Immediately prior to the assay LOX was reconstituted in 20% glycerol in PBS. Recombinant Loxosceles intermedia Phospholipase D LiSicTox-alphaIA1a full length protein expressed in E.coli (part #MBS1258368), further referred to as rPLD toxin, was purchased from MyBiosource Inc, San Diego, CA Diethyl azelate (>99% purity) was prepared as described in Streeper, el al.,“Oral Azelaic Acid Ester Decreases Markers Of Insulin Resistance In Overweight Male Human Subjects.” In Vivo (2020), 34(3), 1173-1186.
as §1

[2] = test system: brown recluse spider bite; assay: Topical diethyl azelate treatment of brown recluse spider bite; type: in vivo, human
Method: An adult subject was bitten once on their left forearm, and twice on their neck about one year later. Diethyl azelate was applied topically to the envenomation site at approximately 4 to 8 hour intervals for 14 days. Images of the affected neck area were normalized to the same size and converted to JPEG files. Inflamed red areas surrounding the bites visible as elevated lesions were outlined on the images and quantified using ImageJ software version 1.53e (ImageJ.nih.gov).

[3] = test system: Recombinant Loxosceles intermedia Phospholipase D LiSicTox-alphaIA1a (rPLD toxin); assay: Inhibition of hemolysis induced by recombinant PLD toxin; type: cell-based
Method: as §2, §1

Molecule	erythrocytes hydrolyzed (hemolysis) (human RBC; human erythrocytes incubated with 5% Triton X100, positive control)	inhibition of hemolysis by L. reclusa venom, dose dependence ([1]; FIG. 3 legend)	inhibition of enzymatic activity of PLD toxin as measured by hemolysis induced by L. reclusa spider venom ([1]; FIG. 4 legend)	inhibition of hemolysis ([1]; preincubation of DEA with LOX for 60 min followed by addition of erythrocytes (FIG. 4))	inhibition of hemolysis ([1]; preincubation of DEA with erythrocytes for 60 min followed by addition of LOX (FIG. 4))	inhibition of hemolysis in the presence of LOX ([1]; starting at the lowest concentration of 1 μM DEA, constant LOX concentration (FIG. 3))	swelling and discomfort ([2]; first incident, forearm bite, topical treatment initiated 4 hours after envenomation, by the fourth day)	arm circumference relative to pre-bite ([2]; first incident, forearm bite, topical treatment initiated 4 hours after envenomation, second day)	time of maximum inflamed red area around the bites ([2]; second incident, two neck bites, topical treatment initiated immediately, Day 2)	redness, pain and swelling ([2]; second incident, two neck bites, topical treatment initiated immediately, by Day 14)	effect on hemolysis (human RBC; human erythrocytes incubated with 122 μM DEA alone)	hemolysis in the presence of PLD toxin ([3]; 1 μM DEA, reduced from 78%)	hemolysis in the presence of PLD toxin ([3]; 5 μM DEA)	hemolysis in the presence of PLD toxin ([3]; 24 μM DEA)	hemolysis in the presence of PLD toxin ([3]; 122 μM DEA)	inhibition of hemolysis by recombinant L. intermedia rPLD toxin, dose dependence ([3]; FIG. 3 legend)	inhibition of enzymatic activity of PLD toxin as measured by hemolysis induced by recombinant L. intermedia rPLD toxin ([3]; FIG. 4 legend)
Triton X100 [reference compound]	> 95%																
CCOC(=O)CCCCCCCC(=O)OCC [DEA, Diethyl azelate]		inhibits hemolysis	directly inhibits enzymatic activity	inhibition of hemolysis	inhibition of hemolysis	significantly inhibits hemolysis	largely subsided	approximately twice	26 hours post-bite	entirely resolved	no effect on hemolysis	43%	16%	13%	5%	inhibits hemolysis	directly inhibits enzymatic activity
